Assay results published in ChEMBL document CHEMBL6177964 (Eur J Med Chem, 2025).
Blank lines part the entries; values can stand above or below the compound they belong to. The source made the active and inactive calls. No cut-off for these calls is given here. Residues, ends and D or L forms follow the SMILES beside them.

Key:
[1] = molecular target: T1, Angiotensin-converting enzyme (Homo sapiens, UniProt P12821); assay: Binding affinity to ACE (unknown origin) assessed as change in entropy (-TdeltaS) at 800 to 1400 nM by isothermal titration calorimetric analysis; conditions: dose 800-1400 nM
T1 sequence (P12821 whole entry): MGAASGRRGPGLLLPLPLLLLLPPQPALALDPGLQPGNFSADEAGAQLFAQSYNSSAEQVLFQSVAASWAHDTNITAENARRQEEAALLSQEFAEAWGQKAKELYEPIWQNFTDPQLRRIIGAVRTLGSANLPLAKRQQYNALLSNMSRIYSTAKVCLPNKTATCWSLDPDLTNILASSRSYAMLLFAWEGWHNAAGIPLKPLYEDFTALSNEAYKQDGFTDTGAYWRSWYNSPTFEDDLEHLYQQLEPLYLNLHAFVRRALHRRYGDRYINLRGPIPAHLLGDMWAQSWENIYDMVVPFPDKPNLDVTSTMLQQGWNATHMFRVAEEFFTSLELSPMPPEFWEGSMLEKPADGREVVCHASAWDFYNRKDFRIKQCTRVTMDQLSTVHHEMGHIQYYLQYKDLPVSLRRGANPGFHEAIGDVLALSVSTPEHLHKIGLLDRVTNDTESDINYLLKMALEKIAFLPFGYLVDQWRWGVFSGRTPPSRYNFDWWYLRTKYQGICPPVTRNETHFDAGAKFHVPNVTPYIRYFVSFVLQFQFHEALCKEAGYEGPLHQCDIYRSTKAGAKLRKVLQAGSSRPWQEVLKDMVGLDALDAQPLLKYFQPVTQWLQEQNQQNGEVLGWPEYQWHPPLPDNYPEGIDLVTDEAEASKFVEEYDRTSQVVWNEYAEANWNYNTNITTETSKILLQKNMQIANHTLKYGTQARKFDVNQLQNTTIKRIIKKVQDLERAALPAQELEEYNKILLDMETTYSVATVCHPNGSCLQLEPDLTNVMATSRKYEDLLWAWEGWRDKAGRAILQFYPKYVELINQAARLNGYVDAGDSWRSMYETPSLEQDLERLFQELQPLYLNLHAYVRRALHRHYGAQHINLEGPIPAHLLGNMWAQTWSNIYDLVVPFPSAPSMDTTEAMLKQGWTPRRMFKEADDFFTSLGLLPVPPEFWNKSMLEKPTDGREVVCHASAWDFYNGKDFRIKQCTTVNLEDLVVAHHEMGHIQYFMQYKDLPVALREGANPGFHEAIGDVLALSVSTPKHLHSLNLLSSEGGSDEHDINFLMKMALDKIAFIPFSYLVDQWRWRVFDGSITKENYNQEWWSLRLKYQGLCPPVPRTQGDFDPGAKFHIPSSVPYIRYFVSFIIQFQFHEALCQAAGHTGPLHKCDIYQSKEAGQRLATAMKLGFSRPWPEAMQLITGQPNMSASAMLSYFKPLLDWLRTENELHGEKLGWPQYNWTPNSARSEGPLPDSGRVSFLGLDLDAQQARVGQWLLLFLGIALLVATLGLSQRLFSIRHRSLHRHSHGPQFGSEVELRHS

[2] = molecular target: T1, Angiotensin-converting enzyme; assay: Binding affinity to ACE (unknown origin) assessed as change in enthalpy at 800 to 1400 nM by isothermal titration calorimetric analysis; conditions: dose 800-1400 nM
[3] = molecular target: T1, Angiotensin-converting enzyme; assay: Inhibition of ACE (unknown origin) preincubated with compound for 5 mins and measured after 60 mins
[4] = molecular target: T1, Angiotensin-converting enzyme; assay: Binding affinity to ACE (unknown origin) assessed as change in entropy (deltaS) at 800 to 1400 nM by isothermal titration calorimetric analysis; conditions: dose 800-1400 nM
[5] = molecular target: T1, Angiotensin-converting enzyme; assay: Binding affinity to ACE (unknown origin) assessed as change in Gibbs free energy at 800 to 1400 nM by isothermal titration calorimetric analysis; conditions: dose 800-1400 nM
[6] = molecular target: T1, Angiotensin-converting enzyme; assay: Binding affinity to ACE (unknown origin) assessed as dissociation constant by isothermal titration calorimetric analysis
[7] = molecular target: T1, Angiotensin-converting enzyme; assay: Binding affinity to ACE (unknown origin) measured at 20 mins
Rattus norvegicus [8] = assay: Acute antihypertensive activity in spontaneously hypertensive male Wistar Kyoto rat assessed as reduction in systolic blood pressure at 2.5 mg/kg administered via gavage measured after 4 hrs by tail-artery manometry; format: functional
Rattus norvegicus [9] = assay: Acute antihypertensive activity in spontaneously hypertensive male Wistar Kyoto rat assessed as reduction in diastolic blood pressure at 2.5 mg/kg administered via gavage measured after 6 hrs by tail-artery manometry; format: functional
Rattus norvegicus [10] = assay: Subacute antihypertensive activity in spontaneously hypertensive male Wistar Kyoto rat assessed as reduction in systolic blood pressure at 5 mg/kg administered via gavage and measured after 1 week by tail-artery manometry; format: functional, organism-based; conditions: time 1.0 weeks
Rattus norvegicus [11] = assay: Subacute antihypertensive activity in spontaneously hypertensive male Wistar Kyoto rat assessed as reduction in diastolic blood pressure at 5 mg/kg administered via gavage and measured after 1 week by tail-artery manometry; format: functional, organism-based; conditions: time 1.0 weeks
Rattus norvegicus [12] = assay: Subacute antihypertensive activity in spontaneously hypertensive male Wistar Kyoto rat assessed as reduction in systolic blood pressure at 5 mg/kg administered via gavage for 4 weeks and measured at 22 hrs post dose by tail-artery manometry; format: functional
Rattus norvegicus [13] = assay: Subacute antihypertensive activity in spontaneously hypertensive male Wistar Kyoto rat assessed as reduction in diastolic blood pressure at 5 mg/kg administered via gavage for 4 weeks and measured at 22 hrs post dose by tail-artery manometry; format: functional
Rattus norvegicus [14] = assay: Effect on spontaneously hypertensive male Wistar Kyoto rat assessed as reduction in serum ACE activity by measuring hippuric acid level at 5 mg/kg administered via gavage for 4 weeks and measured at 22 hrs post dose by RP-HPLC analysis; format: functional, organism-based
Rattus norvegicus [15] = assay: Effect on spontaneously hypertensive male Wistar Kyoto rat assessed as reduction in Ang II level in serum at 5 mg/kg administered via gavage for 4 weeks and measured at 22 hrs post dose by ELISA; format: functional, organism-based
Rattus norvegicus [16] = assay: Antihypertensive activity in spontaneously […] male Wistar Kyoto rat assessed as increase in fecal acetic acid level at 5 mg/kg administered via gavage for 4 weeks and measured at 22 hrs post dose by RP-HPLC analysis relative to control; format: functional
Rattus norvegicus [17] = assay: Antihypertensive activity in spontaneously […] male Wistar Kyoto rat assessed as increase in fecal propionic acid level at 5 mg/kg administered via gavage for 4 weeks and measured at 22 hrs post dose by RP-HPLC analysis relative to control; format: functional
Rattus norvegicus [18] = assay: Antihypertensive activity in spontaneously […] male Wistar Kyoto rat assessed as increase in fecal butyric acid level at 5 mg/kg administered via gavage for 4 weeks and measured at 22 hrs post dose by RP-HPLC analysis relative to control; format: functional
Rattus norvegicus [19] = organism: Rattus norvegicus; assay: Prevention of gut microbiota dysbiosis in spontaneously hypertensive male Wistar Kyoto rat model assessed as increase in shannon indices; format: functional, organism-based
Rattus norvegicus [20] = organism: Rattus norvegicus; assay: Prevention of gut microbiota dysbiosis in spontaneously hypertensive male Wistar Kyoto rat model assessed as increase in simpson indices; format: functional, organism-based
Rattus norvegicus [21] = organism: Rattus norvegicus; assay: Prevention of gut microbiota dysbiosis in spontaneously hypertensive male Wistar Kyoto rat model assessed as increase in bacteroidetes abundance; format: functional, organism-based
Rattus norvegicus [22] = organism: Rattus norvegicus; assay: Prevention of gut microbiota dysbiosis in spontaneously hypertensive male Wistar Kyoto rat model assessed as decrease in epsilonbacteraeota abundance; format: functional, organism-based
Rattus norvegicus [23] = organism: Rattus norvegicus; assay: Prevention of gut microbiota dysbiosis in spontaneously hypertensive male Wistar Kyoto rat model assessed as fold increase in lachnospiraceae abundance; format: functional
Rattus norvegicus [24] = organism: Rattus norvegicus; assay: Prevention of gut microbiota dysbiosis in spontaneously hypertensive male Wistar Kyoto rat model assessed as fold increase in rikenellaceae abundance; format: functional
Rattus norvegicus [25] = organism: Rattus norvegicus; assay: Prevention of gut microbiota dysbiosis in spontaneously hypertensive male Wistar Kyoto rat model assessed as fold increase in ruminococcaceae abundance; format: functional
Rattus norvegicus [26] = organism: Rattus norvegicus; assay: Prevention of gut microbiota dysbiosis in spontaneously hypertensive male Wistar Kyoto rat model assessed as increase in enterobacteriaceae abundance relative to control; format: functional
Rattus norvegicus [27] = organism: Rattus norvegicus; assay: Prevention of gut microbiota dysbiosis in spontaneously hypertensive male Wistar Kyoto rat model assessed as fold increase in ruminococcaceae UCG-014 abundance; format: functional
Rattus norvegicus [28] = organism: Rattus norvegicus; assay: Prevention of gut microbiota dysbiosis in spontaneously hypertensive male Wistar Kyoto rat model assessed as fold increase in oscillibacter abundance; format: functional
Rattus norvegicus [29] = organism: Rattus norvegicus; assay: Prevention of gut microbiota dysbiosis in spontaneously hypertensive male Wistar Kyoto rat model assessed as decrease in parabacteroides abundance relative to control; format: functional; design: scale not given: the % may be the effect or the level left
Rattus norvegicus [30] = organism: Rattus norvegicus; assay: Prevention of gut microbiota dysbiosis in spontaneously hypertensive male Wistar Kyoto rat model assessed as decrease in streptococcus abundance relative to control; format: functional; design: scale not given: the % may be the effect or the level left
Rattus norvegicus [31] = organism: Rattus norvegicus; assay: Prevention of gut microbiota dysbiosis in spontaneously hypertensive male Wistar Kyoto rat model assessed as fold increase in roseburia abundance; format: functional
Rattus norvegicus [32] = organism: Rattus norvegicus; assay: Prevention of gut microbiota dysbiosis in spontaneously hypertensive male Wistar Kyoto rat model assessed as fold increase in turicibacter abundance; format: functional
Rattus norvegicus [33] = assay: Antihypertensive activity in spontaneously hypertensive male rat assessed as reduction in systolic blood pressure at 5 mg/kg, IG measured after 24 hrs by tail-cuff method; format: functional
Rattus norvegicus [34] = assay: Antihypertensive activity in spontaneously hypertensive male rat assessed as reduction in diastolic blood pressure at 5 mg/kg, IG measured after 24 hrs by tail-cuff method; format: functional
[35] = molecular target: T1, Angiotensin-converting enzyme; assay: Binding affinity to ACE (unknown origin)
[36] = molecular target: T1, Angiotensin-converting enzyme; assay: Inhibition of ACE (unknown origin)

SMILES: C[C@H](NC(=O)[C@@H](N)CCCCN)C(=O)N[C@@H](CCCCN)C(=O)N[C@@H](Cc1c[nH]c2ccccc12)C(=O)O (H-KAKW-OH)
- -TdeltaS [1]: -1.57 kcal/mol
- deltaH [2]: -8.31 kcal/mol
- IC50 [3]: 2.02 µM
- deltaS [4]: 5.28 cal/mol.K
- deltaG [5]: -9.88 kcal/mol
- Kd [6]: 0.0577 µM
- Activity [7]: Active
- Activity (Rattus norvegicus [8]): 20 mmHg
- Activity (Rattus norvegicus [9]): 18 mmHg
- Activity (Rattus norvegicus [10]): Active
- Activity (Rattus norvegicus [11]): Active
- Activity (Rattus norvegicus [12]): 11 mmHg
- Activity (Rattus norvegicus [13]): 12 mmHg
- Activity (Rattus norvegicus [14]): Active
- Activity (Rattus norvegicus [15]): Active
- Activity (Rattus norvegicus [16]): 28%
- Activity (Rattus norvegicus [17]): 105%
- Activity (Rattus norvegicus [18]): 45%
- Activity (Rattus norvegicus [19]): Active
- Activity (Rattus norvegicus [20]): Active
- Activity (Rattus norvegicus [21]): Active
- Activity (Rattus norvegicus [22]): Active
- fold change (FC) (Rattus norvegicus [23]): 1.5
- fold change (FC) (Rattus norvegicus [24]): 4.4
- fold change (FC) (Rattus norvegicus [25]): 4.4
- Activity (Rattus norvegicus [26]): 85%
- fold change (FC) (Rattus norvegicus [27]): 1.8
- fold change (FC) (Rattus norvegicus [28]): 2.6
- Activity (Rattus norvegicus [29]): 44%
- Activity (Rattus norvegicus [30]): 43%
- fold change (FC) (Rattus norvegicus [31]): 2
- fold change (FC) (Rattus norvegicus [32]): 2.3

SMILES: CC(C)C[C@H](NC(=O)[C@H](CO)NC(=O)[C@@H](NC(=O)CNC(=O)CNC(=O)[C@H](Cc1ccc(O)cc1)NC(=O)CNC(=O)[C@@H](N)CCCCN)C(C)C)C(=O)N1CCC[C@H]1C(=O)N[C@@H](CCC(=O)O)C(=O)N[C@@H](Cc1c[nH]c2ccccc12)C(=O)O (H-KGYGGVSLPEW-OH)
- Activity (Rattus norvegicus [33]): 20 mmHg
- Activity (Rattus norvegicus [34]): 27 mmHg

SMILES: CC(C)C[C@H](NC(=O)CNC(=O)[C@H](CCC(=O)O)NC(=O)[C@@H]1CCCN1C(=O)[C@@H](N)C(C)C)C(=O)N[C@@H](CC(N)=O)C(=O)N[C@@H](CO)C(=O)N[C@@H](Cc1c[nH]c2ccccc12)C(=O)N1CCC[C@H]1C(=O)N[C@@H](Cc1ccccc1)C(=O)O (H-VPEGLNSWPF-OH)
- IC50 [3]: 73.3 µM

SMILES: CC(C)C[C@H](NC(=O)[C@H](Cc1c[nH]c2ccccc12)NC(=O)[C@H](CCCCN)NC(=O)[C@H](Cc1ccccc1)NC(=O)[C@@H]1CCCN1C(=O)[C@H](CC(N)=O)NC(=O)[C@@H](NC(=O)[C@@H](NC(=O)[C@@H](N)C(C)C)[C@@H](C)O)C(C)C)C(=O)N1CCC[C@H]1C(=O)O (H-VTVNPFKWLP-OH)
- IC50 [36]: 5.5 µM

Other lines, results leading:

- -TdeltaS [1]: -7.51 kcal/mol
- deltaH [2]: -1.84 kcal/mol
- IC50 [3]: 7.23 µM
- deltaS [4]: 25.2 cal/mol.K
- deltaG [5]: -9.35 kcal/mol
- Kd [6]: 0.141 µM
- Activity [7]: Active
SMILES: C[C@H](NC(=O)[C@@H](N)CCCCN)C(=O)N[C@@H](CCCCN)C(=O)N1CCC[C@H]1C(=O)O (H-KAKP-OH)

- IC50 [3]: 1450 µM
SMILES: C[C@H](NC(=O)[C@@H](N)CCCCN)C(=O)N1CCC[C@H]1C(=O)N[C@@H](CCCCN)C(=O)O (H-KAPK-OH)

- IC50 [3]: 2920 µM
SMILES: CC(C)[C@H](NC(=O)[C@H](CCCCN)NC(=O)[C@H](C)NC(=O)[C@@H](N)CCCCN)C(=O)O (H-KAKV-OH)

- IC50 [35]: 5.42 µM
SMILES: CC(C)C[C@H](N)C(=O)N[C@@H](C)C(=O)N1CCC[C@H]1C(=O)N[C@@H](Cc1ccc(O)cc1)C(=O)N[C@@H](Cc1c[nH]c2ccccc12)C(=O)O (H-LAPYW-OH)

- IC50 [3]: 789 µM
SMILES: CSCC[C@H](NC(=O)[C@H](CCCCN)NC(=O)[C@H](C)NC(=O)[C@@H](N)CCCCN)C(=O)O (H-KAKM-OH)
